According to patent US20210395210A1, “INHIBITION OF BACTERIAL CHAPERONIN SYSTEMS” (THE TRUSTEES OF INDIANA UNIVERSITY, priority 2018, published 2021):
Where two headings read alike, the source gives them in different places.

Columns and labels:
in vitro = settings: human
Procedure: HEK 293 cells were maintained in MEM medium (Corning Cellgro, 10-009 CV) supplemented with 10% FBS (Sigma, F2242). […] Cells at 80% confluence were harvested and diluted in growth medium, then 45 μL of the THLE-3 cells (1,500 cells/well) or HEK 293 cells (1,500 cells/well) were dispensed per well, and plates were sealed with “Breathe Easy” oxygen permeable membranes (Diversified Biotech) and incubated at 37° C., 5% CO2, for 24 h.

E. coli GroEL/ES = molecular target: T1, E. coli GroEL/ES (Escherichia coli, UniProt P0A6F5); assay: GroEL/ES-mediated dRho refolding assay; format: biochemical; settings: for log(IC50) GroEL/ES-dRho Refolding: log of IC50 (μM scale), with standard deviation
T1 construct: made in house; host or cells: GroEL in E. coli DH5α; GroES in E. coli BL21 (DE3)
T1 sequence (P0A6F5 2-548): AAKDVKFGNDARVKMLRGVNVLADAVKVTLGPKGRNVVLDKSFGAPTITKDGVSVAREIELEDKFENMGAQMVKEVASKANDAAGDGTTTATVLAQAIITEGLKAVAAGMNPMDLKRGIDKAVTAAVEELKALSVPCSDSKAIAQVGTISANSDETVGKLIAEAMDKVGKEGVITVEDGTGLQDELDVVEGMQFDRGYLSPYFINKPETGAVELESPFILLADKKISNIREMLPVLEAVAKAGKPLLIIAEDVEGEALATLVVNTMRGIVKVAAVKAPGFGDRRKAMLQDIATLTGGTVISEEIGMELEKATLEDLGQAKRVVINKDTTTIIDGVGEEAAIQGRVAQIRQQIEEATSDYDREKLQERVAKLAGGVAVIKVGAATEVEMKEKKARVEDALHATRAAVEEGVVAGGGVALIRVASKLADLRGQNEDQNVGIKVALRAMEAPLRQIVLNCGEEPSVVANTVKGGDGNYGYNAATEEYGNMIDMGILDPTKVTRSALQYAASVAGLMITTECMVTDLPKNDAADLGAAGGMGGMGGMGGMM
Procedure: Reagent preparation: For this assay, five primary reagent stocks were prepared: 1) GroEUES-dRho binary complex stock; 2) ATP initiation stock; 3) thiocyanate enzymatic assay stock; 4) formaldehyde quench stock; 5) ferric nitrate reporter stock. Denatured rhodanese (dRho) was prepared by 3-fold dilution of rhodanese (Roche product #R1756, diluted to 10 mg/mL with H2O) with denaturant buffer (12 M Urea, 50 mM Tris-HCl, pH 7.4, and 10 mM DTT). Rhodanese was completely denatured by incubating at room temperature for 45 min. The binary complex solution was prepared by slowly adding the dRho stock to a stirring stock of concentrated GroEL in modified folding buffer (50 mM Tris-HCl, pH 7.4, 50 mM KCl, 10 mM MgCl2, 5 mM Na2S2O3, and 1 mM DTT). The solution was centrifuged at 16,000×g for 5 minutes, and the supernatant was collected and added to a solution of GroES in modified folding buffer to give final protein concentrations of 100 nM GroEL, 120 nM GroES, and 80 nM dRho. The binary complex stock was prepared immediately prior to use. For the ATP initiation stock, ATP solid was diluted into modified folding buffer to a final concentration of 2.0 mM. The thiocyanate enzymatic assay stock was prepared to contain 70 mM KH2PO4, 80 mM KCN, and 80 mM Na2S2O3 in water. The formaldehyde quench solution contained 30% formaldehyde in water. The ferric nitrate reporter stock contained 8.5% w/v Fe(NO3)3 and 11.3% v/v HNO3 in water.
Assay Protocol: First, 10 μL aliquots of the GroEL/ES-dRho complex stock were dispensed into clear, 384-well polystyrene plates. […] The chaperonin-mediated refolding cycle was initiated by addition of 10 μL of ATP stock (reagent concentrations during refolding cycle: 50 nM GroEL, 60 nM GroES, 40 nM dRho, 1 mM ATP, and compounds of 250 μM to 114 nM, 3-fold dilution series). After incubating for 45 minutes at 37° C. for the refolding cycle, 30 μL of the thiocyanate enzymatic assay stock was added and incubated for 60 min at R.T. for the refolded rhodenase enzymatic reporter reaction. The reporter reaction was quenched by adding 10 μL of the formaldehyde quench stock, and then 40 μL of the ferric nitrate reporter stock was added to quantify the amount of thiocyanate produced during the enzymatic reporter reaction, which is proportional to the amount of dRho refolded by GroEL/ES. After incubating at R.T. for 15 min, the absorbance by Fe(SCN)3 was measured at 460 nm using a Molecular Devices SpectraMax Plus384 microplate reader. A second set of baseline control plates were prepared analogously, but without GroEL/ES-dRho protein binary solution, to correct for possible interference from compound absorbance or turbidity. […] Results presented represent the averages of IC50 values obtained from at least quadriplicate (duplicate of duplicate) replicates.
After generating the compound library, we next employed a series of well-established biochemical assays to evaluate compound inhibitory effects against the GroEUES chaperonin system (See FIG. 6 and FIG. 7). We used E. coli GroEUES as the surrogate chaperonin system for refolding of the reporter enzymes malate dehydrogenase (MDH) and rhodanese (Rho). Briefly, binary complexes are formed between GroEL and denatured MDH or Rho, which are then refolded to their native states upon addition of ATP and the GroES co-chaperonin. Enzymatic activities of refolded native MDH or Rho act as coupled reporters of GroEUES refolding functions since in the presence of chaperonin inhibitors, no functional reporter enzymes are generated.

native Rho (rhodanese) = molecular target: T2, native Rho (rhodanese) (Bos taurus, UniProt P00586); assay: Counter-screen for inhibition of native rhodanese enzymatic activity; format: biochemical; settings: for log(IC50) Native Rho Reporter: log of IC50 (μM scale), with standard deviation
T2 construct: purchased Roche (so in the source) R1756
T2 sequence (P00586 1-297): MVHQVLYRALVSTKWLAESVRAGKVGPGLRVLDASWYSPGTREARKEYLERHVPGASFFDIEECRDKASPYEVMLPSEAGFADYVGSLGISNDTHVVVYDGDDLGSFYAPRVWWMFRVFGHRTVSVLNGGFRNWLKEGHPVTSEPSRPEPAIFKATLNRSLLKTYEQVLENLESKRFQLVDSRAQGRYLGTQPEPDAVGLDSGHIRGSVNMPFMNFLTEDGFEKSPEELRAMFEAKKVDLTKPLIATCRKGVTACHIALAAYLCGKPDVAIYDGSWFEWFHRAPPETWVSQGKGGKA
Procedure: Reagent Preparations & Assay Protocol: Reagents were identical to those used in the GroEUES-dRho refolding assay described above; however, the assay protocol differed in the sequence of compound addition to the wells. Compounds were pin-transferred after the 60 minute incubation for the refolding cycle, but prior to the addition of the thiocyanate enzymatic assay stock. Thus, the refolding reactions were allowed to proceed for 60 min at 37° C. in the absence of test compounds, but the enzymatic activity of the refolded rhodanese reporter enzyme was monitored in the presence of test compounds (inhibitor concentration range during the enzymatic reporter reaction is 100 µM to 46 nM-3-fold dilutions). IC50 values for the rhodenase reporter enzyme were determined as described above. Results presented represent the averages of IC50 values obtained from at least quadriplicate (duplicate of duplicate) replicates.

[1] = read-out: Biochemical Assay IC50 Native Rho Reporter
[2] = read-out: Biochemical Assay IC50 GroEL/ES-dRho Refolding

Row | Structure (SMILES) | CC50 at 48 h (in vitro) [µM] | IC50 (E. coli GroEL/ES) [µM] | IC50 (native Rho (rhodanese); [1]) [µM] | log(IC50) GroEL/ES-dRho Refolding (E. coli GroEL/ES) | log(IC50) Native Rho Reporter (native Rho (rhodanese)) | CC50 at 48 h (in vitro; HEK 293 kidney cells) [µM] | IC50 (E. coli GroEL/ES; [2]) [µM] | IC50 (native Rho (rhodanese)) [µM]
1 | COc1c(Br)cc(Br)cc1C(=O)Nc1ccc(Sc2nc3ccccc3s2)c(Cl)c1 [Compound 29, N-(4-(Benzo[d]thiazol-2-ylthio)-3-chlorophenyl)-3,5-dibromo-2-methoxybenzamide] | > 100 | > 100 | > 100 | – | – | – | – | –
2 | O=C(Nc1cccc(Cl)c1)c1cccc(Br)c1 [Compound 24, 3-Bromo-N-(3-chlorophenyl)benzamide] | 51.3 | > 100 | > 100 | >2 | >2 | – | – | –
3 | COc1ccccc1C(=O)Nc1cccc(Cl)c1 [Compound 40, N-(3-Chlorophenyl)-2-methoxybenzamide] | > 100 | > 100 | > 100 | >2 | >2 | – | – | –
4 | COc1c(Br)cc(Br)cc1C(=O)Nc1ccc(Sc2nc3ccccc3s2)cc1 [Compound 33, N-(4-(Benzo[d]thiazol-2-ylthio)phenyl)-3,5-dibromo-2-methoxybenzamide] | > 100 | > 100 | > 100 | – | – | – | – | –
5 | CC1(C)S[C@@H]2[C@H](NC(=O)[C@H](N)c3ccccc3)C(=O)N2[C@H]1C(=O)O [Ampicillin, ampicillin, reference compound] | – | – | > 100 | >2 | >2 | > 100 | > 100 | –
6 | COc1ccc(Br)cc1C(=O)Nc1ccccc1 [Compound 43, 5-Bromo-2-methoxy-N-phenylbenzamide] | > 100 | > 100 | > 100 | >2 | >2 | – | – | –
7 | Cc1cc(C(C#N)c2ccc(Cl)cc2)c(Cl)cc1NC(=O)c1cc(I)cc(I)c1O (stereo not shown) [Closantel, closantel, reference compound] | – | 1.55 | > 100 | – | >2 | 75.9 | 1.5 | –
8 | O=C(Nc1ccc(Sc2nc3ccccc3s2)cc1)c1cc(Br)cc(Br)c1 [Compound 20, N-(4-(Benzo[d]thiazol-2-ylthio)phenyl)-3,5-dibromobenzamide] | > 100 | > 100 | > 100 | – | – | – | – | –
9 | COc1c(Br)cc(Br)cc1C(=O)Nc1ccccc1 [Compound 41, 3,5-Dibromo-2-methoxy-N-phenylbenzamide] | > 100 | > 100 | > 100 | >2 | >2 | – | – | –
10 | CN[C@H](CC(C)C)C(=O)N[C@H]1C(=O)N[C@@H](CC(N)=O)C(=O)N[C@H]2C(=O)N[C@H]3C(=O)N[C@H](C(=O)N[C@H](C(=O)O)c4cc(O)cc(O)c4-c4cc3ccc4O)[C@H](O)c3ccc(c(Cl)c3)Oc3cc2cc(c3O[C@@H]2O[C@H](CO)[C@@H](O)[C@H](O)[C@H]2O[C@H]2C[C@](C)(N)[C@H](O)[C@H](C)O2)Oc2ccc(cc2Cl)[C@H]1O [Vancomycin, vancomycin, reference compound] | > 100 | > 100 | – | >2 | >2 | – | – | > 100
11 | COc1c(Br)cc(Br)cc1C(=O)Nc1cccc(Cl)c1 [Compound 37, 3,5-Dibromo-N-(3-chlorophenyl)-2-methoxybenzamide] | > 100 | > 100 | > 100 | >2 | >2 | – | – | –
12 | COc1c(Br)cccc1C(=O)Nc1cccc(Cl)c1 [Compound 38] | > 100 | > 100 | > 100 | >2 | >2 | – | – | –
13 | O=C(Nc1ccccc1)c1cc(Br)cc(Br)c1 [Compound 26, 3,5-Dibromo-N-phenylbenzamide] | > 100 | > 100 | > 100 | >2 | >2 | – | – | –
14 | O=C(Nc1ccc(Sc2nc3ccccc3s2)c(Cl)c1)c1cc(Br)cc(Br)c1 [Compound 17, N-(4-(Benzo[d]thiazol-2-ylthio)-3-chlorophenyl)-3,5-dibromobenzamide] | > 100 | > 100 | > 100 | – | – | – | – | –
15 | O=C(Nc1ccc(Sc2nc3ccccc3s2)cc1)c1ccccc1 [Compound 22, N-(4-(Benzo[d]thiazol-2-ylthio)phenyl)benzamide] | > 100 | > 100 | > 100 | – | – | – | – | –
16 | O=C(Nc1ccccc1)c1cccc(Br)c1 [Compound 27, 3-Bromo-N-phenylbenzamide] | > 100 | > 100 | > 100 | >2 | >2 | – | – | –
17 | O=C(Nc1cccc(Cl)c1)c1cc(Br)cc(Br)c1O [Compound 9, 3,5-Dibromo-N-(3-chlorophenyl)-2-hydroxybenzamide] | 18.2 | – | > 100 | 1.67 ± 0.04 | >2 | – | 47 | –
18 | COc1ccc(Br)cc1C(=O)Nc1ccc(Sc2nc3ccccc3s2)cc1 [Compound 35, N-(4-(Benzo[d]thiazol-2-ylthio)phenyl)-5-bromo-2-methoxybenzamide] | > 100 | > 100 | > 100 | – | – | – | – | –
19 | COc1ccccc1C(=O)Nc1ccccc1 [Compound 44, 2-Methoxy-N-phenylbenzamide] | > 100 | > 100 | > 100 | >2 | >2 | – | – | –
20 | O=C(Nc1ccccc1)c1ccccc1O [Compound 16, 2-Hydroxy-N-phenylbenzamide] | > 100 | – | – | >2 | >2 | – | > 100 | > 100
21 | COc1ccc(Br)cc1C(=O)Nc1ccc(Sc2nc3ccccc3s2)c(Cl)c1 [Compound 31, N-(4-(Benzo[d]thiazol-2-ylthio)-3-chlorophenyl)-5-bromo-2-methoxybenzamide] | > 100 | > 100 | > 100 | – | – | – | – | –
